Key:
TNF-α and IL1β = assay: bleomycin-induced lung lesion, dosage of inflammatory cytokines TNF-α and IL1β; type: in vivo, CD1 male mice; conditions: BLM-treated mice
Protocol: (§1) CD1 male mice ((CD1(ICR) mice (25-35 g; Harlan Nossan, Italy) were accommodated in a controlled environment and fed with standard food and water.
(§2) Using a catheter (tracheotomy tube), the mice received a single intratracheal instillation of physiological solution (0.9%) or saline containing bleomycin sulfate (0.1 U/mouse) in a final volume of 100 μL, and the liquid was immediately followed by 300 μL of air in order to also ensure the distribution thereof in the distal airways.
TNF-α and IL1β are also regarded as the biochemical markers of inflammation and fibrosis of the lung. The results obtained are shown in the chart in FIG. 9.

PPAR-gamma receptor = biological target: T1, PPAR-gamma receptor (Rattus norvegicus, UniProt O88275); assay: carrageenan-induced rat paw edema with PPAR-gamma antagonist GW9662, residence time of the paw on the hot plate; type: in vivo
T1 construct: from tissue; host or cells: live rat (in vivo, paw edema model)
T1 sequence (O88275 1-505): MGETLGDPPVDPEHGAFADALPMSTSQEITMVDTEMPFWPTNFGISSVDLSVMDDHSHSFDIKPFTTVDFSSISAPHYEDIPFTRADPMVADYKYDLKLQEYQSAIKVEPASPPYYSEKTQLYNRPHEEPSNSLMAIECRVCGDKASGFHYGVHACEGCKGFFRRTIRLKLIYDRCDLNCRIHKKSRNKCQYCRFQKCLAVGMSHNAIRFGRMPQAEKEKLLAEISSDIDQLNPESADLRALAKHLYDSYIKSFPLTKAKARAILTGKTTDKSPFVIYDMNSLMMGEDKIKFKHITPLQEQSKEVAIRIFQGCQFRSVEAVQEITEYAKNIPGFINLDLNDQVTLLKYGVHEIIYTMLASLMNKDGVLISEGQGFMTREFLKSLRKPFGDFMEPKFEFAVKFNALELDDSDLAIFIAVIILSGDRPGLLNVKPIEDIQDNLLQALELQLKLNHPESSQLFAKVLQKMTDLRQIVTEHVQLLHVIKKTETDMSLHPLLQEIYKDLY
Protocol: The experimental model of carrageenan-induced rat paw edema is as shown above. In this experiment, the effect was assessed by measuring the residence time of the animal's paw on the hot plate, thus obtaining percentage data with respect to the control treated with carrageenan alone.
The rats (10 animals per group) were divided into the following experimental groups: • CAR+physiological solution; • CAR+GW9662 (1 mg/kg)+Adelmidrol (10 mg/kg); GW9662 was administered i.p. 30 min before injecting CAR and Adelmidrol (i.p.) when injecting CAR; • CAR+Adelmidrol (10 mg/kg); Adelmidrol was administered i.p. when injecting CAR.

[1] = tested on: carrageenan-induced rat paw edema; assay: carrageenan-induced rat paw edema, foot volume by plethysmometer; type: in vivo
Protocol: The experimental model of carrageenan-induced rat paw edema was used.
The experimental model of carrageenan-induced paw edema was induced by sub-plantarily injecting a solution of carrageenan (containing 50 μl of sterile saline containing 1% carrageenan) in the animal's right paw (rat).
The foot volume was measured at specific time intervals by means of a plethysmometer (Ugo Basile, Milan, Italy). The increase in plantar volume was assessed as the difference between the value obtained at the specific time intervals and the volume at baseline (time 0) measured immediately before the administration of carrageenan.
The rats (10 animals per group) were divided into the following experimental groups: • CAR+physiological solution; • CAR+Adelmidrol (3 mg/kg); Adelmidrol was administered i.p. when injecting CAR; • CAR+Adelmidrol (10 mg/kg); Adelmidrol was administered i.p. when injecting CAR.

[2] = tested on: inflammatory cells in BAL fluid; assay: bleomycin-induced lung lesion, inflammatory cells in bronchoalveolar lavage (BAL) fluid; type: in vivo, CD1 male mice; conditions: BLM-treated mice, BAL seven days after induction
Protocol: as §1, §2
Seven days after the induction of fibrosis, the mice were sacrificed and their trachea was immediately cannulated with an intravenous catheter made of polyethylene (Neo Delta Ven. 2, Delta Med, Viadana, Italy) equipped with a 1 mL 24-gauge syringe. The lungs were washed once with 0.5 mL of D-PBS (GIBCO, UK). In 95% of mice, the recovery volume exceeds 0.4 mL. The BAL fluid was centrifuged at 800 rpm, the surfactant was removed and the cell pellet was resuspended in PBS. The number of cells in the BAL fluid was obtained by counting on a hemocytometer in the presence of Trypan Blue. Cytospins were prepared from the cells resuspended in PBS. The slides were dried in dry air and then colored with Diff-Quick Set Stain (Diff-Quick, Baxter Scientific, Miami, FL). Using the optical microscopy, a total of 400 cells was examined from each sample in randomly chosen fields. […]

myeloperoxidase (MPO) = myeloperoxidase (MPO) activity in the bowel of DNBS-treated animals; type: in vivo, rat; conditions: Adelmidrol 10 mg/kg orally
Protocol: The determination of the activity of the enzyme myeloperoxidase (MPO), which is considered an important marker of neutrophil activity in the bowel, fully confirms the effect of Adelmidrol on the colonic mucosa. The test was carried out by the method described in the literature (Morampudi V. et al. Journal of Visualized Experiments—February 2014; 84:1-8) on DBNS-treated animals, not treated animals, or animals orally treated with Adelmidrol (10 mg/kg).
The results are shown in the chart in FIG. 4.

## O=C(CCCCCCCC(=O)NCCO)NCCO [Adelmidrol, azelaic acid diethanolamide]
TNF-α and IL1β
  IL1β level in the lung (FIG. 9): considerably reduces the levels of both inflammatory cytokines
  TNF-α level in the lung (FIG. 9): considerably reduces the levels of both inflammatory cytokines
PPAR-gamma receptor; Adelmidrol 10 mg/kg ip alone, 0 min.
  residence time of the paw on the hot plate, percentage with respect to the control treated with carrageenan alone: 107.4 percentage
PPAR-gamma receptor; Adelmidrol 10 mg/kg ip alone, 30 min
  residence time of the paw on the hot plate, percentage with respect to the control treated with carrageenan alone: 98.5 percentage
PPAR-gamma receptor; Adelmidrol 10 mg/kg ip alone, 1 hr
  residence time of the paw on the hot plate, percentage with respect to the control treated with carrageenan alone: 123.2 percentage
PPAR-gamma receptor; Adelmidrol 10 mg/kg ip alone, 2 hr
  residence time of the paw on the hot plate, percentage with respect to the control treated with carrageenan alone: 134.2 percentage
PPAR-gamma receptor; Adelmidrol 10 mg/kg ip alone, 3 hr
  residence time of the paw on the hot plate, percentage with respect to the control treated with carrageenan alone: 146.8 percentage
PPAR-gamma receptor; Adelmidrol 10 mg/kg ip alone, 4 hr
  residence time of the paw on the hot plate, percentage with respect to the control treated with carrageenan alone: 197.7 percentage
PPAR-gamma receptor; Adelmidrol 10 mg/kg ip alone, 5 hr
  residence time of the paw on the hot plate, percentage with respect to the control treated with carrageenan alone: 175.0 percentage
PPAR-gamma receptor; GW9662 1 mg/kg i.p. 30 min before CAR + Adelmidrol 10 mg/kg i.p., 0 min.
  residence time of the paw on the hot plate, percentage with respect to the control treated with carrageenan alone: 105.2 percentage
PPAR-gamma receptor; GW9662 1 mg/kg i.p. 30 min before CAR + Adelmidrol 10 mg/kg i.p., 30 min
  residence time of the paw on the hot plate, percentage with respect to the control treated with carrageenan alone: 96.2 percentage
PPAR-gamma receptor; GW9662 1 mg/kg i.p. 30 min before CAR + Adelmidrol 10 mg/kg i.p., 1 hr
  residence time of the paw on the hot plate, percentage with respect to the control treated with carrageenan alone: 102.4 percentage
PPAR-gamma receptor; GW9662 1 mg/kg i.p. 30 min before CAR + Adelmidrol 10 mg/kg i.p., 2 hr
  residence time of the paw on the hot plate, percentage with respect to the control treated with carrageenan alone: 104.1 percentage
PPAR-gamma receptor; GW9662 1 mg/kg i.p. 30 min before CAR + Adelmidrol 10 mg/kg i.p., 3 hr
  residence time of the paw on the hot plate, percentage with respect to the control treated with carrageenan alone: 111.3 percentage
PPAR-gamma receptor; GW9662 1 mg/kg i.p. 30 min before CAR + Adelmidrol 10 mg/kg i.p., 4 hr
  residence time of the paw on the hot plate, percentage with respect to the control treated with carrageenan alone: 114.1 percentage
PPAR-gamma receptor; GW9662 1 mg/kg i.p. 30 min before CAR + Adelmidrol 10 mg/kg i.p., 5 hr
  residence time of the paw on the hot plate, percentage with respect to the control treated with carrageenan alone: 112.5 percentage
[1]; 3 and 10 mg/kg i.p.
  effect on carrageenan-induced edema (in words): reduction of the carrageenan-induced edema with a dose-dependent action
[1]; Adelmidrol 3 mg/kg i.p. when injecting CAR, 0 min.
  paw edema as a percentage with respect to the edema produced by carrageenan alone: 101.2 percentage
[1]; Adelmidrol 3 mg/kg i.p. when injecting CAR, 30 min
  paw edema as a percentage with respect to the edema produced by carrageenan alone: 86.7 percentage
[1]; Adelmidrol 3 mg/kg i.p. when injecting CAR, 1 hr
  paw edema as a percentage with respect to the edema produced by carrageenan alone: 71.9 percentage
[1]; Adelmidrol 3 mg/kg i.p. when injecting CAR, 2 hr
  paw edema as a percentage with respect to the edema produced by carrageenan alone: 72.3 percentage
[1]; Adelmidrol 3 mg/kg i.p. when injecting CAR, 3 hr
  paw edema as a percentage with respect to the edema produced by carrageenan alone: 69.8 percentage
[1]; Adelmidrol 3 mg/kg i.p. when injecting CAR, 4 hr
  paw edema as a percentage with respect to the edema produced by carrageenan alone: 67.2 percentage
[1]; Adelmidrol 3 mg/kg i.p. when injecting CAR, 5 hr
  paw edema as a percentage with respect to the edema produced by carrageenan alone: 67.4 percentage
[1]; Adelmidrol 10 mg/kg i.p. when injecting CAR, 0 min.
  paw edema as a percentage with respect to the edema produced by carrageenan alone: 102.6 percentage
[1]; Adelmidrol 10 mg/kg i.p. when injecting CAR, 30 min
  paw edema as a percentage with respect to the edema produced by carrageenan alone: 81.6 percentage
[1]; Adelmidrol 10 mg/kg i.p. when injecting CAR, 1 hr
  paw edema as a percentage with respect to the edema produced by carrageenan alone: 68.7 percentage
[1]; Adelmidrol 10 mg/kg i.p. when injecting CAR, 2 hr
  paw edema as a percentage with respect to the edema produced by carrageenan alone: 63.8 percentage
[1]; Adelmidrol 10 mg/kg i.p. when injecting CAR, 3 hr
  paw edema as a percentage with respect to the edema produced by carrageenan alone: 53.6 percentage
[1]; Adelmidrol 10 mg/kg i.p. when injecting CAR, 4 hr
  paw edema as a percentage with respect to the edema produced by carrageenan alone: 49.5 percentage
[1]; Adelmidrol 10 mg/kg i.p. when injecting CAR, 5 hr
  paw edema as a percentage with respect to the edema produced by carrageenan alone: 49.5 percentage
[2]
  number of macrophages, neutrophils and lymphocytes in BAL fluid (FIGS. 7 and 8): reduces the number of macrophages, neutrophils and lymphocytes in a very significant manner
Myeloperoxidase (MPO)
  MPO activity in the bowel, marker of neutrophil activity (FIG. 4): anti-inflammatory effect on the bowel tissue
